Data on 18 compounds can be found in publication PMC8119466, “A screen of FDA-approved drugs identifies inhibitors of protein tyrosine phosphatase 4A3 (PTP4A3 or PRL-3)” (Scientific Reports, 2021).

Common to all, as to type: biochemical
One experiment addresses T1, recombinant PRL-1 (Homo sapiens, UniProt Q93096).
T1 construct: 6xHis (N, cleaved yes); made in house; host or cells: E. coli One Shot BL21 Star
T1 sequence (Q93096 1-173): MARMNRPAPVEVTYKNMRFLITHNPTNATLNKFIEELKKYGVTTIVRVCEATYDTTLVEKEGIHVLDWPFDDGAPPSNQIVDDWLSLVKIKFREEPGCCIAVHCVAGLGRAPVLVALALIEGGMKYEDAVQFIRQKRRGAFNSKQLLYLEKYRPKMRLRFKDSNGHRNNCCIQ
Nature of the experiment: In vitro phosphatase assay (DiFMUP hydrolysis), PRL-1. Note: test concentration or dose not given here.

The target in the next experiment is T2, recombinant PRL-2 (Homo sapiens, UniProt Q12974).
T2 construct: 6xHis (N, cleaved yes); made in house; host or cells: E. coli One Shot BL21 Star
T2 sequence (Q12974 1-167): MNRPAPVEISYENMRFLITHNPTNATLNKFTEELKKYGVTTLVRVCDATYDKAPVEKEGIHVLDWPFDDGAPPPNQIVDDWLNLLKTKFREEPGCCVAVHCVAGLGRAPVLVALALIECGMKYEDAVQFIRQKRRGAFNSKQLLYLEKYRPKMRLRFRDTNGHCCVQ
The experiment is described as follows: In vitro phosphatase assay (DiFMUP hydrolysis), PRL-2.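 Note: PRL-2 activity read as DiFMUP hydrolysis after 20 min at room temperature with drug, enzyme first pre-reduced at 4 °C for 20 min.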

The target in the next experiment is T3, recombinant PRL-3 (Homo sapiens, UniProt O75365).
T3 construct: 6xHis (N, cleaved yes); made in house; host or cells: E. coli One Shot BL21 Star
The experiment is described as follows: In vitro phosphatase assay (DiFMUP hydrolysis), PRL-3. Note: test concentration or dose not given here.

[1] abbreviates: FDA-approved drug screen, compared to DMSO.
Setting [2] is: FDA-approved drug screen, activity compared to DMSO.

Structures can show the parent of a compound that is named as a salt. Where two headings read alike, the source gives them in different places.

T3 sequence (O75365 whole entry): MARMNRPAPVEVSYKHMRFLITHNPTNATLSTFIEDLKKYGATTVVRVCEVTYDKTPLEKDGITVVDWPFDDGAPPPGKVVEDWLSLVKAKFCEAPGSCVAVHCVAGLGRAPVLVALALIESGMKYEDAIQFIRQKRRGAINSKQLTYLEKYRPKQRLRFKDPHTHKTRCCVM

For `COc1ccccc1OCCNCC(O)COc1cccc2[nH]c3ccccc3c12` (stereo not drawn) [Carvedilol], the “% Phosphatase Activity (compared to DMSO) PRL-1” value on recombinant PRL-1 (setting [1]) is 97%. The “% Phosphatase Activity (compared to DMSO) PRL-2” value at recombinant PRL-2 (setting [1]) worked out at 128%. Moreover, the “% Phosphatase Activity (compared to DMSO) PRL-3” value at recombinant PRL-3 (setting [1]) was determined as 111%.

For `CC1CCc2c(N3CCC(O)CC3)c(F)cc3c(=O)c(C(=O)O)cn1c23` (stereo not drawn) [Nadifloxacin], on recombinant PRL-1 (setting [1]), the “% Phosphatase Activity (compared to DMSO) PRL-1” value is 133%. For the same compound, the “% Phosphatase Activity (compared to DMSO) PRL-2” value on recombinant PRL-2 (setting [1]) stood at 108%. In addition, on recombinant PRL-3 (setting [1]), the “% Phosphatase Activity (compared to DMSO) PRL-3” value was determined as 86%.

For `CC(C)NCC(O)c1ccccc1Cl.Cl` (stereo not drawn) [Clorprenaline HCl], the “% Phosphatase Activity (compared to DMSO) PRL-1” value at recombinant PRL-1 (setting [1]) came to 91%. In addition, the “% Phosphatase Activity (compared to DMSO) PRL-2” value on recombinant PRL-2 (setting [1]) is 102%. Moreover, the “% Phosphatase Activity (compared to DMSO) PRL-3” value at recombinant PRL-3 (setting [1]) is 75%.

As to `COc1ccc(NS(=O)(=O)c2ccc(N)cc2)nn1` [Sulfamethoxypyridazine], the “% Phosphatase Activity (compared to DMSO) PRL-1” value at recombinant PRL-1 (setting [2]) is 94%. Besides, the “% Phosphatase Activity (compared to DMSO) PRL-2” value at recombinant PRL-2 (setting [2]) was 109%. For the same compound, the “% Phosphatase Activity (compared to DMSO) PRL-3” value at recombinant PRL-3 (setting [2]) is recorded as 77%.

On to `CC(C)NCC(O)COc1ccc(COCCOC(C)C)cc1` (stereo not drawn) [Bisoprolol fumarate], for which the “% Phosphatase Activity (compared to DMSO) PRL-1” value on recombinant PRL-1 (setting [1]) worked out at 104%. Besides, the “% Phosphatase Activity (compared to DMSO) PRL-2” value on recombinant PRL-2 (setting [1]) was determined as 124%. Further, at recombinant PRL-3 (setting [1]), the “% Phosphatase Activity (compared to DMSO) PRL-3” value is listed as 89%.

Turning to `NC(=O)N/N=C/c1ccc([N+](=O)[O-])o1` [Nitrofural], the “% Phosphatase Activity (compared to DMSO) PRL-1” value on recombinant PRL-1 (setting [1]) is 82%. The “% Phosphatase Activity (compared to DMSO) PRL-2” value at recombinant PRL-2 (setting [1]) turned out to be 72%. The “% Phosphatase Activity (compared to DMSO) PRL-3” value at recombinant PRL-3 (setting [1]) is on record as 68%.

In the case of `C[C@H](NCc1ccc(OCc2cccc(F)c2)cc1)C(N)=O` [Safinamide Mesylate], the “% Phosphatase Activity (compared to DMSO) PRL-1” value on recombinant PRL-1 (setting [1]) stood at 103%. Further, on recombinant PRL-2 (setting [1]), the “% Phosphatase Activity (compared to DMSO) PRL-2” value was 112%. The “% Phosphatase Activity (compared to DMSO) PRL-3” value at recombinant PRL-3 (setting [1]) was 86%.

Take `CCOC(=O)C1=C(COCCN)NC(C)=C(C(=O)OC)C1c1ccccc1Cl.O=S(=O)(O)c1ccccc1` (stereo not drawn) [Amlodipine besylate (Norvasc)]: the “% Phosphatase Activity (compared to DMSO) PRL-1” value on recombinant PRL-1 (setting [1]) turned out to be 152%. For the same compound, the “% Phosphatase Activity (compared to DMSO) PRL-2” value on recombinant PRL-2 (setting [1]) was 174%. Besides, the “% Phosphatase Activity (compared to DMSO) PRL-3” value on recombinant PRL-3 (setting [1]) is listed as 168%.

Turning to `O=P1(N(CCCl)CCCl)NCCCO1` (stereo not drawn) [Cyclophosphamide Monohydrate], at recombinant PRL-1, the “% Phosphatase Activity (compared to DMSO) PRL-1” value is reported as 90%. In addition, the “% Phosphatase Activity (compared to DMSO) PRL-2” value on recombinant PRL-2 is given as 105%. The “% Phosphatase Activity (compared to DMSO) PRL-3” value on recombinant PRL-3 was found to be 94%.

For the compound `COc1cc2nc(N3CCN(C(=O)c4ccco4)CC3)nc(N)c2cc1OC` [Prazosin HCl], the “% Phosphatase Activity (compared to DMSO) PRL-1” value on recombinant PRL-1 (setting [1]) was 460%. For the same compound, the “% Phosphatase Activity (compared to DMSO) PRL-2” value at recombinant PRL-2 (setting [1]) is given as 435%. For the same compound, the “% Phosphatase Activity (compared to DMSO) PRL-3” value on recombinant PRL-3 (setting [1]) was 263%.

Take `CCOC(=O)n1ccn(C)c1=S` [Carbimazole]: the “% Phosphatase Activity (compared to DMSO) PRL-1” value on recombinant PRL-1 (setting [1]) was found to be 103%. Besides, the “% Phosphatase Activity (compared to DMSO) PRL-2” value on recombinant PRL-2 (setting [1]) is on record as 114%. Moreover, the “% Phosphatase Activity (compared to DMSO) PRL-3” value on recombinant PRL-3 (setting [1]) was 78%.

With `CN(C)[C@@H]1C(O)=C(C(N)=O)C(=O)[C@@]2(O)C(O)=C3C(=O)c4c(O)ccc(Cl)c4[C@@H](O)[C@H]3C[C@@H]12` [Demeclocycline HCl], the “% Phosphatase Activity (compared to DMSO) PRL-1” value on recombinant PRL-1 (setting [1]) is on record as 90%. Also, the “% Phosphatase Activity (compared to DMSO) PRL-2” value at recombinant PRL-2 (setting [1]) came out at 86%. At recombinant PRL-3 (setting [1]), the “% Phosphatase Activity (compared to DMSO) PRL-3” value was found to be 67%.

`O=c1[nH]c(=O)n([C@H]2C[C@H](O)[C@@H](CO)O2)cc1I` [Idoxuridine]: at recombinant PRL-1 (setting [1]), the “% Phosphatase Activity (compared to DMSO) PRL-1” value turned out to be 94%. On recombinant PRL-2 (setting [1]), the “% Phosphatase Activity (compared to DMSO) PRL-2” value was determined as 103%. Moreover, the “% Phosphatase Activity (compared to DMSO) PRL-3” value on recombinant PRL-3 (setting [1]) came to 90%.

With `CNC1CCCN(c2c(F)cc3c(=O)c(C(=O)O)cn(C4CC4)c3c2OC)C1` (stereo not drawn) [Balofloxacin], the “% Phosphatase Activity (compared to DMSO) PRL-1” value at recombinant PRL-1 (setting [1]) was found to be 282%. The “% Phosphatase Activity (compared to DMSO) PRL-2” value on recombinant PRL-2 (setting [1]) stood at 411%. Also, on recombinant PRL-3 (setting [1]), the “% Phosphatase Activity (compared to DMSO) PRL-3” value is given as 123%.

Regarding `NC(=O)[C@@H]1CCCN1C(=O)[C@H](Cc1cnc[nH]1)NC(=O)[C@@H]1CCC(=O)N1` [Protirelin], the “% Phosphatase Activity (compared to DMSO) PRL-1” value on recombinant PRL-1 (setting [1]) is given as 97%. The “% Phosphatase Activity (compared to DMSO) PRL-2” value at recombinant PRL-2 (setting [1]) is given as 91%. For the same compound, the “% Phosphatase Activity (compared to DMSO) PRL-3” value on recombinant PRL-3 (setting [1]) is 106%.

For the compound `COc1c(C)c2c(c(O)c1C/C=C(\C)CCC(=O)O)C(=O)OC2` [Mycophenolic acid], on recombinant PRL-1 (setting [1]), the “% Phosphatase Activity (compared to DMSO) PRL-1” value is 125%. The “% Phosphatase Activity (compared to DMSO) PRL-2” value on recombinant PRL-2 (setting [1]) is listed as 100%. Further, the “% Phosphatase Activity (compared to DMSO) PRL-3” value on recombinant PRL-3 (setting [1]) is on record as 85%.

Consider `Cc1ccsc1C(=CCCN1CCC[C@@H](C(=O)O)C1)c1sccc1C` [Tiagabine hydrochloride], for which the “% Phosphatase Activity (compared to DMSO) PRL-1” value on recombinant PRL-1 (setting [2]) came out at 100%. Moreover, on recombinant PRL-2 (setting [2]), the “% Phosphatase Activity (compared to DMSO) PRL-2” value was determined as 97%. For the same compound, the “% Phosphatase Activity (compared to DMSO) PRL-3” value on recombinant PRL-3 (setting [2]) was found to be 83%.

Consider `OCc1cc(C(O)CNCCCCCCOCCCCc2ccccc2)ccc1O` (stereo not drawn) [Salmeterol Xinafoate], for which the “% Phosphatase Activity (compared to DMSO) PRL-1” value at recombinant PRL-1 (setting [1]) was 146%. Further, the “% Phosphatase Activity (compared to DMSO) PRL-2” value at recombinant PRL-2 (setting [1]) is listed as 136%. Further, the “% Phosphatase Activity (compared to DMSO) PRL-3” value on recombinant PRL-3 (setting [1]) is 110%.
